Results from patent publication US8609833B2, “Purine derivatives as adenosine A1 receptor agonists and methods of use thereof” (Inotek Pharmaceuticals Corporation, priority 2004, dated 2013).

Legend:
[1] = molecular target: human recombinant A2A adenosine receptor (Homo sapiens (Human), UniProt P29274); assay: Adenosine A2A receptor binding, displacement of [3H]NECA; details: displacement of specific [3H]NECA binding, CHO cells; geometric mean
Procedure: (§1) Membranes for radioligand binding experiments were prepared from fresh or frozen cells as described in Klotz et al., Naunyn-Schmiedeberg's Arch. […] The cell suspension was then homogenized in ice-cold hypotonic buffer (5 mM Tris/HCl, 2 mM EDTA, pH 7.4) and the homogenate was spun for 10 minutes (4° C.) at 1,000 g.
(§2) Nonspecific binding was determined in the presence of 100 μM R-PIA and 1 mM theophylline, respectively. For details see Klotz et al., Naunyn-Schmiedeberg's Arch.

[2] = molecular target: human recombinant A3 adenosine receptor (Homo sapiens (Human), UniProt P0DMS8); assay: Adenosine A3 receptor binding, displacement of [3H]NECA; details: displacement of specific [3H]NECA binding, HEK cells; geometric mean
Procedure: as §1, §2

[3] = molecular target: human recombinant A1 adenosine receptor (Homo sapiens (Human), UniProt P30542); assay: Adenosine A1 receptor binding, displacement of [3H]CCPA; details: for Ki: displacement of specific [3H]CCPA binding, CHO cells, geometric mean; for selectivity for the adenosine A1 receptor: versus human A2A and A3 receptors, Table 1
Procedure: as §1
The affinities of selected Purine Derivatives for the adenosine A1 receptor were determined by measuring the displacement of specific [^3H]
as §2

male mice [4] = assay: Acute pain model, tail flick assay; format: in vivo, mouse; details: 3 mg/kg i.p.
Procedure: The analgesic effects in mice was measured using an IITC model 33 tail-flick analgesia meter (IITC Inc., Woodland Hills, Calif.) at 0 minutes (baseline control), 5 minutes, 15 minutes, 30 minutes and 60 minutes (in some cases also 90 and 120 minutes) post-treatment. compound or vehicle treatment. Average recoding value of two readings was used for each time point. A baseline for every mouse between 2-4 seconds of latency and a 10-second cut-off time was set for the maximum possible effect of analgesia (% MPE). % MPE was calculated using the following formula: % MPE=[(post-drug value−baseline)/(cut-off time−baseline)]×100.

[5] = system: isolated perfused rat hearts; assay: Function recovery after global ischemia/reperfusion in isolated perfused rat hearts; details: 1 nM, infused 10 min before 30 min no-flow ischemia, 40 min reperfusion
Procedure: Male Sprague-Dawley rats (having a body weight of 250 to 300 g) were heparinized using sodium heparin (1,000 U/kg i.p.), followed 10 minutes later by introduction of anesthesia via intraperitoneal administration of sodium pentobarbital (40 mg/kg). Once the animal was anesthetized, the thorax was opened, and the heart was rapidly removed and perfused through the ascending aorta using Krebs-Ringer buffer consisting of NaCl (118 mmol/liter), KCl (4.75 mmol/liter), KH2PO4 (1.18 mmol/liter), MgSO4 (1.18 mmol/liter), CaCl2 (2.5 mmol/liter), NaHCO3 (25 mmol/liter), and glucose (11 mmol/liter). A mixture of 95% O2 and 5% CO2 at 37° C. was bubbled through the perfusate. The heart was initially perfused at a constant pressure of 70 mm Hg. About 10 min after the constant pressure perfusion, perfusion was switched to constant flow perfusion achieved using a microtube pump. The perfusion pressure was maintained at the same level of constant pressure perfusion by adjusting flow rate. Once the flow rate was determined, it was maintained throughout the experiment. The hearts were stimulated by rectangular pulses at a rate of 5 Hz and 2-millisecond duration and twice the diastolic threshold, delivered from a stimulus isolation unit (ADInstruments Ltd, Australia). Rat hearts were initially perfused at a constant pressure of 70 mm Hg using the procedure described above in section 6.12.1. […]

male mice [6] = assay: Formalin pain model; format: in vivo, mouse; details: 1.0 mg/kg i.p.
Procedure: Male mice (each having a body weight of 20-30 g) were subcutaneously administered 20 μl of a 1% formalin solution in formaldehyde (prepared by diluting a commercial 4% [w/v] stock formalin solution) into the dorsal region of their left hind paw. […] Both groups of animals were monitored for a reaction for 30 minutes post-treatment to determine how much time each animal spends licking the treated paw. The licking time in control group (vehicle pretreated animals) was then compared to the licking time in the treatment group in order to calculate the analgesic effect. The 30 minute reaction period was divided into two phases: an early phase which lasts from 0-5 minutes post-treatment, and a late phase which lasts from 10-30 minutes post-treatment.

male BALB/c mice [7] = assay: Lipopolysaccharide-induced cytokine production (septic shock model); format: in vivo, mouse; details: 0.03 mg/kg orally 30 min before LPS 1 mg/kg i.p.; measured 90 min after LPS
Procedure: (§3) Male BALB/c mice (6-8 weeks of age) were used in studies investigating lipopolysaccharide-induced cytokine production and survival. […] Serum was diluted 1:5 prior to being assayed for cytokines using species-specific ELISA kits (R & D Systems) for the chemokine MIP-1α and the cytokine TNF-α levels, which were expressed as pg/mL. […] The survival of the mice was followed over 72 h and expressed as a percentage of surviving mice at each time point. […] N=12-14 per group.

[8] = system: isolated perfused rat hearts; assay: Ischemia-induced arrhythmias in isolated perfused rat hearts (LAD ligation)
Procedure: Male Sprague-Dawley rats (having a body weight of 250 to 300 g) were heparinized using sodium heparin (1,000 U/kg i.p.), followed 10 minutes later by introduction of anesthesia via intraperitoneal administration of sodium pentobarbital (40 mg/kg). Once the animal was anesthetized, the thorax was opened, and the heart was rapidly removed and perfused through the ascending aorta using Krebs-Ringer buffer consisting of NaCl (118 mmol/liter), KCl (4.75 mmol/liter), KH2PO4 (1.18 mmol/liter), MgSO4 (1.18 mmol/liter), CaCl2 (2.5 mmol/liter), NaHCO3 (25 mmol/liter), and glucose (11 mmol/liter). A mixture of 95% O2 and 5% CO2 at 37° C. was bubbled through the perfusate. The heart was initially perfused at a constant pressure of 70 mm Hg. About 10 min after the constant pressure perfusion, perfusion was switched to constant flow perfusion achieved using a microtube pump. The perfusion pressure was maintained at the same level of constant pressure perfusion by adjusting flow rate. Once the flow rate was determined, it was maintained throughout the experiment. The hearts were stimulated by rectangular pulses at a rate of 5 Hz and 2-millisecond duration and twice the diastolic threshold, delivered from a stimulus isolation unit (ADInstruments Ltd, Australia). Rat hearts were perfused at constant pressure of 70 mmHg without pacing as described above. Bipolar epicardial electrocardiogram (ECG) was recorded by placing two electrodes on the surface of right appendage and apex. A stainless steel cannula was used as indifferent electrode. The ECG and heart rate were continuously monitored and data were recorded using a PowerLab data acquisition system (ADInstruments Ltd, Australia) in conjunction with a Macintosh computer, and analyzed using Chart.3 computer package. After a 20-minute equilibration period, regional ischemia was induced by ligation of the left anterior descending (LAD) coronary artery, and the ligature was released 30 minutes after occlusion. […] The incidences of ventricular tachycardia (VT) were almost same in control non-treated (12/12) and in treated hearts (20/22). […]

male Wistar rats = assay: Mechanically induced pain threshold in carrageenan rat model; format: in vivo; details: intrathecal, 5.0 mg/kg (FIG. 8); 15-120 min
Procedure: Male Wistar rats (each weighing between 200-250 g, kept under pathogen-free conditions at 24-25° C. and provided with standard rat chow and water ad libitum) were anaesthetized via intraperitoneal administration of pentobarbital (50 mg/kg) and placed in a stereotaxic frame. The atlanto-occipital membrane was exposed and a PE-10 catheter (7.5 cm) was inserted through an incision into the subarachnoidal space. The external end of the catheter was then fixed to the skull, the wound was closed, and the rats were allowed to recover for 7 days post-surgery. Animals without neurological deficits were placed in a plexiglass observation chamber on a metal mesh surface and mechanical thresholds of the plantar surface of the paw were determined using a Dynamic Plantar Aesthesiometer (Ugo Basile, Italy) as follows: Following acclimation, the touch stimulator unit was placed under the animal's paw such that the filament was positioned under the target area of the paw. The filament was then lifted such that it contacted the pad of the animal's paw and continually exerted an increasing upward force on the paw until the animal withdrew the paw. The paw withdrawal threshold was measured 5 times in this manner in turns and the mean of the 5 values was calculated. […] Three hours after the carrageenan administration, the threshold values were measured again.

BALB/C mice = assay: Allodynia in streptozotocin model of diabetic neuropathy; format: in vivo, mouse; details: 1 mg/kg; 15, 30, 60 min after administration
Procedure: BALB/C mice (6-8 weeks of age) were intraperitoneally administered streptozotocin (40 mg/kg, once per day for 5 consecutive days) to induce diabetes (blood glucose levels were greater than […]).

male CD rats = assay: Sciatic nerve ligation allodynia, Von Frey Hair test; format: in vivo, rat
Procedure: The rats were then anesthetized via intraperitoneal administration of sodium pentobarbital (50 mg/kg). A skin incision was made at the upper ⅓ and ⅔ left thigh area of each rat and the left sciatic nerve was exposed and freed from the surrounding connective tissue. An 8-0 nylon suture was then used to tightly ligate the left sciatic nerve of each rat so that the dorsal ⅓ to ½ of the nerve thickness was trapped in the ligature. The incision was closed using 4-0 sterile suture.

male BALB/c mice [9] = assay: Lipopolysaccharide-induced mortality, survival study; format: in vivo, mouse; details: 0.03 mg/kg orally 30 min before LPS 55 mg/kg i.p.; followed over 72 h
Procedure: as §3

adult male Wistar rats = assay: Effect on heart rate in anesthetized rats; format: in vivo, rat
Excerpt: Adult male Wistar rats (each weighing from about 350 g to about 400 g) were anesthetized as in Example 19, then prepared for monitoring of blood pressure and heart rate.

human recombinant A3 adenosine receptor, sequence (P0DMS8 whole entry): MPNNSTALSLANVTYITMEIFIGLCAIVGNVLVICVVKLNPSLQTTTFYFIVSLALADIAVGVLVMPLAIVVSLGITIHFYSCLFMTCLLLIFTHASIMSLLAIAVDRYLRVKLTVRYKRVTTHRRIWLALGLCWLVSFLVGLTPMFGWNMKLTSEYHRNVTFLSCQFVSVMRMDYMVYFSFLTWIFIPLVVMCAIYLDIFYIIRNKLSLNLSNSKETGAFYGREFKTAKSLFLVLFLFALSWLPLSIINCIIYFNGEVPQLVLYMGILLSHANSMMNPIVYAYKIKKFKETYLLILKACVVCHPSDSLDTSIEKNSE
human recombinant A2A adenosine receptor, sequence (P29274 whole entry): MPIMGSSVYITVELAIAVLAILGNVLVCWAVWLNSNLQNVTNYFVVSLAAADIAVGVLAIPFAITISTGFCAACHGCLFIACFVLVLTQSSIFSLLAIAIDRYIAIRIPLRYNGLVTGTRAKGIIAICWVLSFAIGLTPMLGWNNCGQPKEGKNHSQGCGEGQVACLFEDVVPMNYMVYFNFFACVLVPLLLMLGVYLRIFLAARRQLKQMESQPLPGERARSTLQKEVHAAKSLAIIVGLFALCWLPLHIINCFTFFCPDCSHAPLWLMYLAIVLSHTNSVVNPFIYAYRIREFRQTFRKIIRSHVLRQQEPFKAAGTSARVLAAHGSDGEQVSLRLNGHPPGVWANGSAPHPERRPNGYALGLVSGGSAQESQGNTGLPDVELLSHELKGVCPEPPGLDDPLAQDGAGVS
human recombinant A1 adenosine receptor, sequence (P30542 whole entry): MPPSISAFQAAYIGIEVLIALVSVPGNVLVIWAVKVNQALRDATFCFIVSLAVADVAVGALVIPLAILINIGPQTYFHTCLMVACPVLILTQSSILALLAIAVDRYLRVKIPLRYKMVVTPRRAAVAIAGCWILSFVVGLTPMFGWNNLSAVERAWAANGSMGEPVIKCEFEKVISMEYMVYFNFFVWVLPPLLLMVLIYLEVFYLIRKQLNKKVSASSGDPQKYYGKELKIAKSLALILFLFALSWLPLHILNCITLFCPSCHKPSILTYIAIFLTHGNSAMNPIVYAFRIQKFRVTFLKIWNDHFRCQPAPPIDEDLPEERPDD

Structure (SMILES): O=[N+]([O-])OC[C@H]1O[C@@H](n2cnc3c(NC4CCCC4)nc(Cl)nc32)[C@H](O)[C@@H]1O [Compound 16]
- Ki [1]: 4190 nM

Structure (SMILES): Nc1ncnc2c1ncn2[C@@H]1O[C@H](CO[N+](=O)[O-])[C@@H](O)[C@H]1O [Compound 18]
- Ki [1]: 951 nM
- Ki [2]: 216 nM
- Ki [3]: 5.79 nM
- selectivity for the adenosine A1 receptor [3]: selective for the adenosine A1 receptor

Structure (SMILES): Nc1nc(Cl)nc2c1ncn2[C@@H]1O[C@H](CO[N+](=O)[O-])[C@@H](O)[C@H]1O [Compound 19]
- Ki [1]: 10000 nM
- Ki [2]: 900 nM
- Ki [3]: 7 nM
- selectivity for the adenosine A1 receptor [3]: selective for the adenosine A1 receptor

Structure (SMILES): O=[N+]([O-])OC[C@H]1O[C@@H](n2cnc3c(NC4CCCC4)ncnc32)[C@H](O)[C@@H]1O [Compound 17]
- analgesic effect, tail flick (% MPE) (male mice [4]): exerts a analgesic effect
- +dp/dtmax (maximal rate of development of left ventricular pressure) [5]: significantly improved
- analgesic effect, paw licking time, late phase (10-30 min) (male mice [6]): exhibits an analgesic effect during the late phase
- response in first phase of formalin test (male mice [6]; early phase 0-5 min): no response
- lipopolysaccharide-induced plasma MIP-1α production (male BALB/c mice [7]): reduces
- lipopolysaccharide-induced plasma TNF-α production (male BALB/c mice [7]): reduces
- total duration of both VT and VF ([8]; 30 and 100 pM): significantly shortened
- incidence of ventricular fibrillation (VF) ([8]; treated hearts (2/22), 10, 30 and 100 pM, non-treated 58% (7/12)): 9%
- incidence of ventricular tachycardia (VT) ([8]; treated hearts, 10, 30 and 100 pM, non-treated 12/12): 20/22
- Ki [1]: 4690 nM
- paw withdrawal (pain) threshold (male Wistar rats): effective for raising the pain threshold
- analgesic effect on allodynia (BALB/C mice): marked and lasting analgesic effect
- analgesic effect on allodynia, alone (male CD rats; 0.1 mg/kg alone): exerts an analgesic effect
- analgesic effect on allodynia, in combination with buprenorphine (male CD rats; 0.1 mg/kg co-administered with buprenorphine 0.3 mg/kg): exerts an analgesic effect
- lipopolysaccharide-induced mortality (male BALB/c mice [9]): reduces
- Ki [2]: 704 nM
- heart rate (adult male Wistar rats; 10 ng/kg/minute i.v. for 20 minutes, lowered from 440 beats per minute): 370 beats per minute
- heart rate (adult male Wistar rats; 1000 ng/kg/minute i.v. for 20 minutes, reduced from 440 beats per minute): 150 beats per minute

Structure (SMILES): O=[N+]([O-])OC[C@H]1O[C@@H](n2cnc3c(NC4CCOC4)ncnc32)[C@H](O)[C@@H]1O (stereo partly drawn) [Compound 25]
- Ki [1]: > 100000 nM
- Ki [2]: 2020 nM
- selectivity for the adenosine A1 receptor [3]: selective for the adenosine A1 receptor
